# Values of other authors as cited in patent publication US20200129471A1, “USE OF CANNABIS TO TREAT FIBROMYALGIA, METHODS AND COMPOSITIONS THEREOF” (ONE WORLD CANNABIS LTD, priority 2015, published 2020).
# Settings: administered to humans for 30 days
compound,measurement,value
"C=C(C)[C@@H]1CCC(C)=C[C@H]1c1c(O)cc(CCCCC)cc1O [CBD, cannabidiol]",tolerability,tolerated
